Measurements as given in US20240116856A1 (Young BioPharma, LLC, priority 2020, published 2024).
Converted amounts (≈) assume the structure as drawn. “Also recorded” adds a separate entry of the source. Like-named read-outs stand apart in the source and are kept apart here.

Assays:
human TRPV3 = target: T1, human TRPV3 (Homo sapiens, UniProt Q8NET8); assay: In vitro Ca2+ flux counter-screen in human TRPV3 overexpressing cells; type: cell-based; settings: counter-screen; read-out: TRPV3 EC50
T1 construct: expressed in transfected cells; host or cells: overexpressing cells
T1 sequence (Q8NET8 1-790): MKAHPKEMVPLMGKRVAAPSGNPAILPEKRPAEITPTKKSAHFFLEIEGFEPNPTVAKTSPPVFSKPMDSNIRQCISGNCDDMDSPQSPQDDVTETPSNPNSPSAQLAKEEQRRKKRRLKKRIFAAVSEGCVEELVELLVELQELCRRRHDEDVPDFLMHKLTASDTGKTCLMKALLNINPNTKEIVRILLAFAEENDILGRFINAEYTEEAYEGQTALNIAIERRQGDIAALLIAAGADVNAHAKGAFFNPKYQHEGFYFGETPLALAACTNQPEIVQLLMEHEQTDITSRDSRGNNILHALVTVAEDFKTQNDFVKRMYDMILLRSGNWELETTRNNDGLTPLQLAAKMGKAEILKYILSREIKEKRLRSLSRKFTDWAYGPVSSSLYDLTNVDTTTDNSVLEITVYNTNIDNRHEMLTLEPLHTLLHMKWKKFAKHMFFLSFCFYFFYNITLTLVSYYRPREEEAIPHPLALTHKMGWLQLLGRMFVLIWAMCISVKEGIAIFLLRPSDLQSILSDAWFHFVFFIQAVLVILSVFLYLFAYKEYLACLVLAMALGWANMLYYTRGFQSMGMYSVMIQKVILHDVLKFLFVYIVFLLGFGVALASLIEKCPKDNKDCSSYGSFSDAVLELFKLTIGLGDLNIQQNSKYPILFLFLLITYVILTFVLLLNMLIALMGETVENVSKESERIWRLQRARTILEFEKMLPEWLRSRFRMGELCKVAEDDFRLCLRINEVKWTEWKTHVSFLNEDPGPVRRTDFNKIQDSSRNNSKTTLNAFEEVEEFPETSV

TRPV1 = target: T2, TRPV1 (Mus musculus, UniProt Q704Y3); assay: Ca2+ imaging of primary mouse dorsal root ganglion (DRG) neurons, TRPV1 desensitization; type: cell-based; settings: then capsaicin 0.5 μM
T2 construct: DRG was isolated from male and female mice expressing GCaMP6f in neurons; endogenous in cells; host or cells: dissociated primary DRG neurons from GCaMP6f-expressing mice
T2 sequence (Q704Y3 whole entry): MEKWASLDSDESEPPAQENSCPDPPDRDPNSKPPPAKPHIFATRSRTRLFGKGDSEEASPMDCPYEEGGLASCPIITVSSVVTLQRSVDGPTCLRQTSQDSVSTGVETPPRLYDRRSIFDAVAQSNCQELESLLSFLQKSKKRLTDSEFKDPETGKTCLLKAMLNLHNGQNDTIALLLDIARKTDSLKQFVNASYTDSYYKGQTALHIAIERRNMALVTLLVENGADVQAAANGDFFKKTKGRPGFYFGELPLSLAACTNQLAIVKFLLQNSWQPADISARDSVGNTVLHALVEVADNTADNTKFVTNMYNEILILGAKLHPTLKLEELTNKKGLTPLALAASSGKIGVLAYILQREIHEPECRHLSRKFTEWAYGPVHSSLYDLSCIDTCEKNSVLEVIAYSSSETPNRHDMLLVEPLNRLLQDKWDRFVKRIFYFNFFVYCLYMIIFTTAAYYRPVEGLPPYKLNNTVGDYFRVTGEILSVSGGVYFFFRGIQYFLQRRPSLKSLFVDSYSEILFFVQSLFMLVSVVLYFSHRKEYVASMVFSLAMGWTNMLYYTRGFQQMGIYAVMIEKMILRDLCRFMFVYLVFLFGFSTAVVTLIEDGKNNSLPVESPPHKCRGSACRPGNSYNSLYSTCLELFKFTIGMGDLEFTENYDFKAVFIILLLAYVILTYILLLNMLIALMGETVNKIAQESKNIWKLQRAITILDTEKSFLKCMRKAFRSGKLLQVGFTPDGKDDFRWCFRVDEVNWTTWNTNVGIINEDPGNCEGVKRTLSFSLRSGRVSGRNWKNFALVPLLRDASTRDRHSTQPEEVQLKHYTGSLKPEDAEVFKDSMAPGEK

MDA-MB-231 = assay: Human cancer cell growth inhibition assay (ATP assay), MDA-MB-231; type: cell-based; settings: Homo sapiens, MDA-MB-231, 96 h; 4 days; Means±SEM from three independent experiments; read-out: MDA-MB-231, IC50
MDA-MB-231 cell invasion = assay: Cancer cell invasion assay, MDA-MB-231; type: cell-based, human; settings: 24 h
In short: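 Transwell inserts were coated with membrane matrix gel (0.5-0.6 mg/mL) and loaded with 1×10^5 human cancer cells in RPMI 1640, with 10% FBS medium below as attractant. Compound or DMSO went into both compartments for 24 h at 37 °C. Invaded cells were fixed, crystal-violet stained, counted in 5 random fields and expressed as % of DMSO control.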

NCI-H460 cell invasion = assay: Cancer cell invasion assay, NCI-H460; type: cell-based, human; settings: 24 h
Procedure: (§1) A cancer cell invasion assay was developed based on literature protocols (Methods 2005, 37, 208; EMBO J 2002, 21, 6289; Cellular Signalling 2012, 24, 1276.). Membrane matrix gel (Cat #A1413201, ThermoFisher) was diluted in ice-cold, serum-free RPMI 1640 Medium (Cat #31800022, ThermoFisher) at a concentration of 0.5-0.6 mg/mL. Then it was added to the upper compartment (100 μL per cup) of millicell inserts (Cat #PI8P01250, ThermoFisher) placed in a 24-well plate (Part no. 229123, Celltreat). The plate was incubated at 37° C. for 2 h to allow the liquid gel to solidify. RPMI 1640 Medium supplemented with 10% FBS (300 μL) was added to the well of the plate (lower compartment) as attractant, then DMSO or compounds were added. Human cancer cells (1×10^5 cells in 200 μL of RPMI 1640 Medium) were added to the upper compartment of the insert, then DMSO or compounds were added. After the plate was incubated at 37° C. for 24 h, the cells were fixed on the lower side of the insert membrane with 4% formaldehyde and stained with 1% crystal violet (Part no. IS12146, Innovating Science). The invaded cells on the lower side of the filter were counted under an inverted microscope equipped with either a 4× or a 10× objective (FIG. 11). The cell numbers from 5 random views were averaged and plotted as percentage against the DMSO control (FIG. 12A).

OVCAR-8 cell invasion = assay: Cancer cell invasion assay, OVCAR-8; type: cell-based, human; settings: 24 h
Procedure: as §1

[1] = test system: Src protein activation in MDA-MB-231 cells; assay: Cancer cell immunocytochemistry assay, Phospho-Src (Y416), MDA-MB-231; type: cell-based, human; settings: YB-1 15 μM, capsaicin 50 μM, 1-6 h
Procedure: (§2) Human cancer cells (15,000 cells/well) in 96 well half area microplate (Cat #3882, Corning) were incubated overnight at 37° C., then compounds or DMSO control were added to the cell culture and incubated at 37° C. for 1-6 h. The cells were sequentially fixed with 4% formalin, permeabilized with 0.5% Triton X-100, blocked with 5% BSA in PBS, incubated with Human Phospho-Src (Y416) Antibody (Cat #MAB2685, R&D Systems) at rt for 2 h, incubated with the secondary antibody Goat Ant-Rabbit IgG H&L (Alexa Fluor 488) (Cat #ab150077, abeam) for 45 min, and incubated with DAPI (Cat #D9542, Sigma-Aldrich) for 5 min. Finally, the cells were washed and covered with PBS. The cell images were visualized on an inverted fluorescence microscope (Leica DMIL Fluorescent Inverted Microscope with Digital Camera, Leica Microsystems). Pictures were taken [FIGS. 14A-C. Green: Human Phospho-Src (Y416), the activated form of the Src protein; Blue: DAPI (stain nucleus of cell)]. The fluorescence intensity values from 5 random cells were averaged, subtracted by the background value (area between cells) and the blank value [the blank control without the Human Phospho-Src (Y416) Antibody], then plotted as percentage against the DMSO control to indicate the effects of compound treatment on the cellular Src kinase phosphorylation levels in the cancer cells (FIGS. 15A-D).

[2] = test system: Src protein activation in OVCAR-8 cells; assay: Cancer cell immunocytochemistry assay, Phospho-Src (Y416), OVCAR-8; type: cell-based, human; settings: YB-1 15 μM, capsaicin 50 μM, 1-6 h
Procedure: as §2

[3] = intraplantar; for reduction of first phase spontaneous behavior: 5-10 g dose
[4] = SubQ; YB-16 3, 6 mg/kg; capsaicin 2 mg/kg
[5] = background; cited from earlier work
[6] = test system: MDA-MB-231 breast cancer tumors; settings: literature; cited from earlier work
[7] = first treatment capsaicin 0.5 μM, YB-11 0.5 μM or YB-16 1.0 μM, paired t-test

## COc1cc(CNC(=O)CCCC/C=C/C(C)C)ccc1O [Capsaicin, trans-8-methyl-N-vanillyl-6-nonenamide, reference compound]
Human TRPV3
  EC50: > 10 µM
TRPV1; first treatment 0.5 μM
  TRPV1-sensitive neurons showing desensitization: 96%
TRPV1; [7]
  area under the curve of the Ca2+ signal of the second (capsaicin) application: statistically significant reduction; also recorded: significantly reduced
  max Ca2+ signal of the second (capsaicin) application: statistically significant reduction; also recorded: significantly reduced
MDA-MB-231
  IC50: 387 ± 120 µM
MDA-MB-231 cell invasion
  inhibition of MDA-MB-231 cell invasion: dose-dependently inhibited
NCI-H460 cell invasion
  inhibition of NCI-H460 cell invasion: dose-dependently inhibited
OVCAR-8 cell invasion
  inhibition of OVCAR-8 cell invasion: dose-dependently inhibited
[1]
  cellular Src kinase phosphorylation levels: time-dependently reduced the cellular Src kinase phosphorylation levels
[2]
  cellular Src kinase phosphorylation levels: time-dependently reduced the cellular Src kinase phosphorylation levels
[3]
  maximum tolerated dose (MTD): 5 g
[3]; 2 hr prior to formalin
  reduction of first phase spontaneous behavior: 44% reduction in first phase pain
  effect in the second phase of the formalin test: not statistically significant
  effect on formalin spontaneous pain-like behavior: reduce spontaneous pain-like behavior in a dose-related manner
[3]; 2 hr prior to formalin, listed as capsaicin
  reduction of first phase spontaneous behavior: 44%
[3]; 10 g dosing group
  animals with sedation: 20%
[3]; listed as capsaicin
  animal death and sedation in formalin test: One of the capsaicin treated animals died
[4]
  effect on hot-plate reaction: reduced hotplate sensitivity compared to vehicle
[5]
  solubility in water: 13 µg/mL (≈ 42.6 µM)
[6]
  decrease of tumor size: 50%
